The conditions of data set [1]: limosilactobacillus reuteri cf48-3a, 12 h, 2 µM.
Description: The drug is tested on Lactobacillus reuteri CF48-3A strain: BEI HM-102 for biotransformation. The drug concentrations were measured before and after a 12-h incubation by liquid-chromatography-coupled mass spectrometry (LC–MS)
Data set [2] can be described thus: The drug is tested on Providencia rettgeri strain: DSM1131 for biotransformation. The drug concentrations were measured before and after a 12-h incubation by liquid-chromatography-coupled mass spectrometry (LC–MS). Type of data set: ADME. Further details: dose 2 uM, timepoint 0 vs 12 hours. Particulars: 2 µM.
Data set [3] is described as follows: The drug is tested on Ruminococcus torques strain: ATCC27756 for biotransformation. The drug concentrations were measured before and after a 12-h incubation by liquid-chromatography-coupled mass spectrometry (LC–MS). The class given is ADME. Further details: dose 2 uM, timepoint 0 vs 12 hours. Particulars: 2 µM.
Data set [4] can be described thus: The drug is tested on Providencia stuartii strain: ATCC25827 for biotransformation. The drug concentrations were measured before and after a 12-h incubation by liquid-chromatography-coupled mass spectrometry (LC–MS). The following applies: 2 µM.
For data set [5] the following is noted: bacteroides thetaiotaomicron, 12 h, 2 µM.
Description: The drug is tested on Bacteroides thetaiotaomicron strain: 7330 for biotransformation. The drug concentrations were measured before and after a 12-h incubation by liquid-chromatography-coupled mass spectrometry (LC–MS)
Data set [6] can be described thus: The drug is tested on Ruminococcus gnavus strain: ATCC29149 for biotransformation. The drug concentrations were measured before and after a 12-h incubation by liquid-chromatography-coupled mass spectrometry (LC–MS). The following applies: mediterraneibacter gnavus, 2 µM.
Data set [7] in a line: The drug is tested on Bacteroides pectinophilus strain: ATCC43243 for biotransformation. The drug concentrations were measured before and after a 12-h incubation by liquid-chromatography-coupled mass spectrometry (LC–MS). The following applies: 2 µM.
Data set [8] is described as follows: The drug is tested on Bacteroides fragilis strain: HMW615 for biotransformation. The drug concentrations were measured before and after a 12-h incubation by liquid-chromatography-coupled mass spectrometry (LC–MS). Particulars: 2 µM.
The conditions of data set [9]: bacteroides thetaiotaomicron, 12 h, 2 µM. This is another data set of the same source.
Description: The drug is tested on Bacteroides thetaiotaomicron strain: VPI-5482 for biotransformation. The drug concentrations were measured before and after a 12-h incubation by liquid-chromatography-coupled mass spectrometry (LC–MS)
A short description of data set [10]: The drug is tested on Collinsella aerofaciens strain: ATCC25986 for biotransformation. The drug concentrations were measured before and after a 12-h incubation by liquid-chromatography-coupled mass spectrometry (LC–MS). Particulars: 2 µM.
A short description of data set [11]: The drug is tested on Bacteroides cellulosilyticus strain: DSM14838 for biotransformation. The drug concentrations were measured before and after a 12-h incubation by liquid-chromatography-coupled mass spectrometry (LC–MS). The following applies: 2 µM.
Data set [12] can be described thus: The drug is tested on Blautia luti strain: DSM14534 for biotransformation. The drug concentrations were measured before and after a 12-h incubation by liquid-chromatography-coupled mass spectrometry (LC–MS). Further details: dose 2 uM, timepoint 0 vs 12 hours. The class given is ADME. The following applies: 2 µM.
A short description of data set [13]: The drug is tested on Bacteroides ovatus strain: ATCC8483 for biotransformation. The drug concentrations were measured before and after a 12-h incubation by liquid-chromatography-coupled mass spectrometry (LC–MS). The following applies: 2 µM.
Data set [14] is described as follows: The drug is tested on Bacteroides caccae strain: ATCC43185 for biotransformation. The drug concentrations were measured before and after a 12-h incubation by liquid-chromatography-coupled mass spectrometry (LC–MS). Particulars: 2 µM.
Data set [15] is described as follows: The drug is tested on Bacteroides vulgatus strain: ATCC8482 for biotransformation. The drug concentrations were measured before and after a 12-h incubation by liquid-chromatography-coupled mass spectrometry (LC–MS). The following applies: phocaeicola vulgatus, 2 µM.
The nature of data set [16]: The drug is tested on Bifidobacterium longum subsp. Infantis strain: CCUG52486 for biotransformation. The drug concentrations were measured before and after a 12-h incubation by liquid-chromatography-coupled mass spectrometry (LC–MS). The following applies: 2 µM.
For data set [17] the following is noted: parabacteroides distasonis, 12 h, 2 µM.
Description: The drug is tested on Parabacteroides distasonis strain: ATCC8503 for biotransformation. The drug concentrations were measured before and after a 12-h incubation by liquid-chromatography-coupled mass spectrometry (LC–MS)
The nature of data set [18]: The drug is tested on Eubacterium rectale strain: ATCC33656 for biotransformation. The drug concentrations were measured before and after a 12-h incubation by liquid-chromatography-coupled mass spectrometry (LC–MS). The following applies: agathobacter rectalis, 2 µM.
For data set [19] the following is noted: bacteroides fragilis, 12 h, 2 µM.
Description: The drug is tested on Bacteroides fragilis strain: NCTC 9343 for biotransformation. The drug concentrations were measured before and after a 12-h incubation by liquid-chromatography-coupled mass spectrometry (LC–MS)
Data set [20] can be described thus: The drug is tested on Blautia hansenii strain: DSM20583 for biotransformation. The drug concentrations were measured before and after a 12-h incubation by liquid-chromatography-coupled mass spectrometry (LC–MS). Particulars: 2 µM.

The source of these data is ChEMBL document CHEMBL5303573, “Mapping human microbiome drug metabolism by gut bacteria and their genes” (Nature, 2019).

On to `CC(C)(C)NCC(O)COc1cccc2c1CC(O)C(O)C2` (stereo not given) [NADOLOL], for which the “Bacterial Biotransformation” value in data set [1], in [2], in data set [3], in data set [4], in data set [5] and in data set [6] was “Compound NOT metabolized” in each case. The “Bacterial Biotransformation” value in [7], in data set [8], in data set [9], in data set [10], in [11] and in [12] was “Compound NOT metabolized” throughout. Further, the “Bacterial Biotransformation” value in data set [13], in data set [14], in [15] and in data set [16] was “Compound NOT metabolized” each time.
Consider `O=C(O[C@H]1C[C@H]2CC[C@@H](C1)[N+]21CCCC1)C(O)(c1ccccc1)c1ccccc1.[Cl-]` [TROSPIUM CHLORIDE], for which the “Bacterial Biotransformation” value in [17], in [1], in data set [2], in [3], in data set [4] and in [5] was “Compound NOT metabolized” throughout. In addition, the “Bacterial Biotransformation” value in [18], in [6], in data set [9], in [10], in data set [19] and in [11] was “Compound NOT metabolized” throughout. In addition, the “Bacterial Biotransformation” value in [12], in data set [13], in data set [14] and in data set [16] was “Compound NOT metabolized” each time.
For the compound `CC(=O)O[C@H]1C(=O)[C@@]2(C)[C@H]([C@H](OC(=O)c3ccccc3)[C@]3(O)C[C@H](OC(=O)[C@H](O)[C@@H](NC(=O)c4ccccc4)c4ccccc4)C(C)=C1C3(C)C)[C@]1(OC(C)=O)CO[C@@H]1C[C@@H]2O` [PACLITAXEL], the “Bacterial Biotransformation” value in [17], in data set [1], in data set [3], in data set [4], in data set [5] and in data set [18] was “Compound NOT metabolized” in each case. Besides, the “Bacterial Biotransformation” value in data set [6], in data set [7], in data set [8], in data set [9], in data set [10] and in data set [11] was “Compound NOT metabolized” in each case. The “Bacterial Biotransformation” value in data set [12], in data set [14] and in data set [16] was “Compound NOT metabolized” each time.
Turning to `CC(C)(C)NC[C@H](O)COc1ccccc1C1CCCC1.CC(C)(C)NC[C@H](O)COc1ccccc1C1CCCC1.O=S(=O)(O)O` [PENBUTOLOL SULFATE], the “Bacterial Biotransformation” value in data set [17], in data set [1], in [3], in [4], in data set [5] and in data set [18] was “Compound NOT metabolized” each time. The “Bacterial Biotransformation” value in [6], in [8], in data set [9], in [10], in data set [19] and in data set [11] was “Compound NOT metabolized” each time. Further, the “Bacterial Biotransformation” value is reported as “Compound NOT metabolized” in [12]; “Compound NOT metabolized” in data set [13]; “Compound NOT metabolized” in data set [14]; “Compound metabolized” in [15]; “Compound NOT metabolized” in [16].
With `CCC(=O)NCC[C@@H]1CCc2ccc3c(c21)CCO3` [RAMELTEON], the “Bacterial Biotransformation” value is “Compound metabolized” in [17]; “Compound metabolized” in [20]; “Compound NOT metabolized” in [1]; “Compound NOT metabolized” in data set [2]; “Compound NOT metabolized” in data set [3]; “Compound NOT metabolized” in data set [6]. For the same compound, the “Bacterial Biotransformation” value was “Compound NOT metabolized” in data set [7]; “Compound metabolized” in [9]; “Compound NOT metabolized” in data set [10]; “Compound metabolized” in [19]; “Compound NOT metabolized” in data set [11]; “Compound NOT metabolized” in data set [12]. Also, the “Bacterial Biotransformation” value in data set [15] is reported as “Compound metabolized”; in data set [16], “Compound NOT metabolized”.
Regarding `COc1c2occc2cc2ccc(=O)oc12` [METHOXSALEN], the “Bacterial Biotransformation” value in data set [17] is “Compound metabolized”; in [20], “Compound metabolized”; in [1], “Compound NOT metabolized”; in [2], “Compound NOT metabolized”; in data set [3] it was “Compound NOT metabolized”; in data set [6], “Compound metabolized”. The “Bacterial Biotransformation” value in [7] was “Compound NOT metabolized”; in data set [8] it was “Compound metabolized”; in data set [9], “Compound NOT metabolized”; in data set [10] it was “Compound NOT metabolized”; in [19], “Compound metabolized”; in data set [11], “Compound metabolized”. Besides, the “Bacterial Biotransformation” value in data set [14] is given as “Compound metabolized”.
As for `CCc1nc(N)nc(N)c1-c1ccc(Cl)cc1` [PYRIMETHAMINE], the “Bacterial Biotransformation” value in data set [17], in [20], in data set [1], in [2], in data set [3] and in data set [4] was “Compound NOT metabolized” throughout. Further, the “Bacterial Biotransformation” value in data set [5], in [6], in data set [7], in [8], in data set [9] and in data set [10] was “Compound NOT metabolized” throughout. Further, the “Bacterial Biotransformation” value in [19], in data set [11], in [12], in data set [13], in data set [14] and in data set [15] was “Compound NOT metabolized” throughout. The “Bacterial Biotransformation” value in data set [16] is recorded as “Compound NOT metabolized”.
